Columns and labels:
Assay in all cases: Test C greenhouse herbicide test, pre- and postemergence
Format in all cases: in vivo
[1] = tested on: ragweed (common ragweed, Ambrosia elatior)
Description: (§1) Seeds of plant species selected from blackgrass (Alopecurus myosuroides), ryegrass, Italian (Italian ryegrass, Lolium multiflorum), wheat (winter wheat, Triticum aestivum), galium (catchweed bedstraw, Galium aparine), corn (Zea mays), large crabgrass, large (large crabgrass, Digitaria sanguinalis), foxtail, giant (giant foxtail, Setaria faberii), johnsongrass (Sorghum halepense), lambsquarters (Chenopodium album), morningglory (Ipomoea coccinea), nutsedge, yellow (yellow nutsedge, Cyperus esculentus), pigweed (Amaranthus retroflexus), ragweed (common ragweed, Ambrosia elatior), soybean (Glycine max), barnyardgrass (Echinochloa crus-galli), oilseed rape (Brassica napus), waterhemp (common waterhemp, Amaranthus rudis), and velvetleaf (Abutilon theophrasti) were planted into a blend of loam soil and sand and treated preemergence with test chemicals formulated in a non-phytotoxic solvent mixture which included a surfactant.
(§2) At the same time, plants selected from these crop and weed species and also chickweed (common chickweed, Stellaria media), kochia (Kochia scoparia), and oat, wild (wild oat, Avena fatua), were planted in pots containing Redi-Earth® planting medium (Scotts Company, 14111 Scottslawn Road, Marysville, Ohio 43041) comprising spaghnum peat moss, vermiculite, wetting agent and starter nutrients and treated with postemergence applications of test chemicals formulated in the same manner. Plants ranged in height from 2 to 18 cm (1- to 4-leaf stage) for postemergence treatments. Treated plants and controls were maintained in a greenhouse for 13 to 15 d, after which time all species were compared to controls and visually evaluated. Plant response ratings, summarized in Table C, are based on a scale of 0 to 100 where 0 is no effect and 100 is complete control. A dash (-) response means no test result.

[2] = tested on: morningglory (Ipomoea coccinea)
Description: as §1, §2

soybean (Glycine max) = tested on: soybean (Glycine max)
Description: as §1, §2

[3] = tested on: crabgrass, large (large crabgrass, Digitaria sanguinalis)
Description: as §1, §2

[4] = tested on: lambsquarters (Chenopodium album)
Description: as §1, §2

[5] = tested on: velvetleaf (Abutilon theophrasti)
Description: as §1, §2

[6] = tested on: barnyardgrass (Echinochloa crus-galli)
Description: as §1, §2

[7] = tested on: nutsedge, yellow (yellow nutsedge, Cyperus esculentus)
Description: as §1, §2

[8] = tested on: pigweed (Amaranthus retroflexus)
Description: as §1, §2

[9] = tested on: johnsongrass (Sorghum halepense)
Description: as §1, §2

[10] = tested on: oilseed rape (Brassica napus)
Description: as §1, §2

[11] = tested on: blackgrass (Alopecurus myosuroides)
Description: as §1, §2

[12] = tested on: foxtail, giant (giant foxtail, Setaria faberii)
Description: as §1, §2

[13] = tested on: galium (catchweed bedstraw, Galium aparine)
Description: as §1, §2

[14] = tested on: waterhemp (common waterhemp, Amaranthus rudis)
Description: as §1, §2

[15] = tested on: wheat (winter wheat, Triticum aestivum)
Description: as §1, §2

[16] = Postemergence, 31 g ai/ha, 0 to 100 scale (0 no effect, 100 complete control)
[17] = Postemergence, 125 g ai/ha, scale 0 to 100, 0 is no effect, 100 is complete control
[18] = Postemergence, 250 g ai/ha, scale 0 to 100, 0 no effect, 100 complete control, 13 to 15 d
[19] = Preemergence, 31 g ai/ha, scale 0 to 100, 0 is no effect, 100 is complete control
[20] = Preemergence, 62 g ai/ha, scale 0 to 100, 0 is no effect, 100 is complete control
[21] = Preemergence, 125 g ai/ha, scale 0 to 100, 0 is no effect, 100 is complete control
[22] = Preemergence, 250 g ai/ha, scale 0 to 100 (0 no effect, 100 complete control)
[23] = postemergence, 62 g ai/ha, scale 0 to 100, 0 no effect, 100 complete control

## CCOC(=O)Oc1c(C)nn(C)c(=O)c1-c1c(CC)ccc2ccccc12 [Compound 37]
[1]; [16]
  Ragweed plant response rating: 90
[1]; [17]
  Plant response rating, Ragweed: 98
[1]; [18]
  Plant response rating, Ragweed: 98
[1]; [19]
  Plant response rating, Ragweed: 85
[1]; [20]
  Plant response rating, Ragweed: 90
[1]; [21]
  Plant response rating, Ragweed: 95
[1]; [22]
  Ragweed plant response rating: 98
[1]; [23]
  Ragweed plant response rating: 95
[2]; [16]
  Morningglory plant response rating: 90
[2]; [17]
  Plant response rating, Morningglory: 98
[2]; [18]
  Plant response rating, Morningglory: 98
[2]; [19]
  Plant response rating, Morningglory: 70
[2]; [20]
  Plant response rating, Morningglory: 80
[2]; [21]
  Plant response rating, Morningglory: 90
[2]; [22]
  Morningglory plant response rating: 98
[2]; [23]
  Morningglory plant response rating: 95
Soybean (Glycine max); [16]
  Soybean plant response rating: 10
Soybean (Glycine max); [17]
  Plant response rating, Soybean: 15
Soybean (Glycine max); [18]
  Plant response rating, Soybean: 25
Soybean (Glycine max); [19]
  Plant response rating, Soybean: 0
Soybean (Glycine max); [20]
  Plant response rating, Soybean: 30
Soybean (Glycine max); [21]
  Plant response rating, Soybean: 20
Soybean (Glycine max); [22]
  Soybean plant response rating: 65
Soybean (Glycine max); [23]
  Soybean plant response rating: 5
[3]; [16]
  Crabgrass, Large plant response rating: 10
[3]; [17]
  Plant response rating, Crabgrass, Large: 25
[3]; [18]
  Plant response rating, Crabgrass, Large: 35
[3]; [19]
  Plant response rating, Crabgrass, Large: 5
[3]; [20]
  Plant response rating, Crabgrass, Large: 5
[3]; [21]
  Plant response rating, Crabgrass, Large: 20
[3]; [22]
  Crabgrass, Large plant response rating: 25
[3]; [23]
  Crabgrass, Large plant response rating: 20
[4]; [16]
  Lambsquarters plant response rating: 90
[4]; [17]
  Plant response rating, Lambsquarters: 95
[4]; [18]
  Plant response rating, Lambsquarters: 100
[4]; [19]
  Plant response rating, Lambsquarters: 85
[4]; [20]
  Plant response rating, Lambsquarters: 60
[4]; [21]
  Plant response rating, Lambsquarters: 85
[4]; [22]
  Lambsquarters plant response rating: 90
[4]; [23]
  Lambsquarters plant response rating: 90
[5]; [16]
  Velvetleaf plant response rating: 20
[5]; [17]
  Plant response rating, Velvetleaf: 85
[5]; [18]
  Plant response rating, Velvetleaf: 90
[5]; [19]
  Plant response rating, Velvetleaf: 25
[5]; [20]
  Plant response rating, Velvetleaf: 80
[5]; [21]
  Plant response rating, Velvetleaf: 85
[5]; [22]
  Velvetleaf plant response rating: 90
[5]; [23]
  Velvetleaf plant response rating: 70
[6]; [16]
  Barnyardgrass plant response rating: 25
[6]; [17]
  Plant response rating, Barnyardgrass: 60
[6]; [18]
  Plant response rating, Barnyardgrass: 90
[6]; [19]
  Plant response rating, Barnyardgrass: 10
[6]; [20]
  Plant response rating, Barnyardgrass: 30
[6]; [21]
  Plant response rating, Barnyardgrass: 70
[6]; [22]
  Barnyardgrass plant response rating: 80
[6]; [23]
  Barnyardgrass plant response rating: 20
[7]; [16]
  Nutsedge, Yellow plant response rating: 20
[7]; [17]
  Plant response rating, Nutsedge, Yellow: 65
[7]; [18]
  Plant response rating, Nutsedge, Yellow: 60
[7]; [19]
  Plant response rating, Nutsedge, Yellow: 0
[7]; [20]
  Plant response rating, Nutsedge, Yellow: 20
[7]; [21]
  Plant response rating, Nutsedge, Yellow: 40
[7]; [22]
  Nutsedge, Yellow plant response rating: 60
[7]; [23]
  Nutsedge, Yellow plant response rating: 40
[8]; [16]
  Pigweed plant response rating: 85
[8]; [17]
  Plant response rating, Pigweed: 95
[8]; [18]
  Plant response rating, Pigweed: 95
[8]; [19]
  Plant response rating, Pigweed: 98
[8]; [20]
  Plant response rating, Pigweed: 98
[8]; [21]
  Plant response rating, Pigweed: 100
[8]; [22]
  Pigweed plant response rating: 100
[8]; [23]
  Pigweed plant response rating: 100
[9]; [16]
  Johnsongrass plant response rating: 0
[9]; [17]
  Plant response rating, Johnsongrass: 5
[9]; [18]
  Plant response rating, Johnsongrass: 35
[9]; [19]
  Plant response rating, Johnsongrass: 0
[9]; [20]
  Plant response rating, Johnsongrass: 0
[9]; [21]
  Plant response rating, Johnsongrass: 5
[9]; [22]
  Johnsongrass plant response rating: 0
[9]; [23]
  Johnsongrass plant response rating: 5
[10]; [16]
  Oilseed Rape plant response rating: 40
[10]; [17]
  Plant response rating, Oilseed Rape: 40
[10]; [18]
  Plant response rating, Oilseed Rape: 50
[10]; [19]
  Plant response rating, Oilseed Rape: 0
[10]; [20]
  Plant response rating, Oilseed Rape: 40
[10]; [21]
  Plant response rating, Oilseed Rape: 60
[10]; [22]
  Oilseed Rape plant response rating: 90
[10]; [23]
  Oilseed Rape plant response rating: 20
[11]; [16]
  Blackgrass plant response rating: 35
[11]; [17]
  Plant response rating, Blackgrass: 80
[11]; [18]
  Plant response rating, Blackgrass: 85
[11]; [19]
  Plant response rating, Blackgrass: 10
[11]; [20]
  Plant response rating, Blackgrass: 30
[11]; [21]
  Plant response rating, Blackgrass: 90
[11]; [22]
  Blackgrass plant response rating: 90
[11]; [23]
  Blackgrass plant response rating: 40
[12]; [16]
  Foxtail, Giant plant response rating: 25
[12]; [17]
  Plant response rating, Foxtail, Giant: 60
[12]; [18]
  Plant response rating, Foxtail, Giant: 85
[12]; [19]
  Plant response rating, Foxtail, Giant: 65
[12]; [20]
  Plant response rating, Foxtail, Giant: 75
[12]; [21]
  Plant response rating, Foxtail, Giant: 85
[12]; [22]
  Foxtail, Giant plant response rating: 85
[12]; [23]
  Foxtail, Giant plant response rating: 35
[13]; [16]
  Galium plant response rating: 90
[13]; [17]
  Plant response rating, Galium: 95
[13]; [18]
  Plant response rating, Galium: 95
[13]; [19]
  Plant response rating, Galium: 100
[13]; [20]
  Plant response rating, Galium: 90
[13]; [21]
  Plant response rating, Galium: 95
[13]; [22]
  Galium plant response rating: 100
[13]; [23]
  Galium plant response rating: 95
[14]; [16]
  Waterhemp plant response rating: 85
[14]; [17]
  Plant response rating, Waterhemp: 80
[14]; [18]
  Plant response rating, Waterhemp: 98
[14]; [19]
  Plant response rating, Waterhemp: 90
[14]; [20]
  Plant response rating, Waterhemp: 95
[14]; [21]
  Plant response rating, Waterhemp: 95
[14]; [22]
  Waterhemp plant response rating: 100
[14]; [23]
  Waterhemp plant response rating: 80
[15]; [16]
  Wheat plant response rating: 30
[15]; [17]
  Plant response rating, Wheat: 30
[15]; [18]
  Plant response rating, Wheat: 35
[15]; [19]
  Plant response rating, Wheat: 0
[15]; [20]
  Plant response rating, Wheat: 0
[15]; [21]
  Plant response rating, Wheat: 5
[15]; [22]
  Wheat plant response rating: 45
[15]; [23]
  Wheat plant response rating: 0

Reference: US10597388B2, “Pyridazinone herbicides” (FMC CORPORATION, priority 2014, dated 2020)
